According to publication PMC8174488, “4-Arylthiosemicarbazide derivatives as a new class of tyrosinase inhibitors and anti-Toxoplasma gondii agents” (Journal of Enzyme Inhibition and Medicinal Chemistry, 2021):

Columns and labels:
L929 cells = experiment: Cell viability assay (MTT, ISO 10993-5) on L929 mouse fibroblasts; format: cell-based; details: 24 h, concentration for 30% inhibition of cell proliferation
Text: First, we evaluated the cytotoxic effects of 1b–9b, which is necessary prior to measuring anti-Toxoplasma and Tyr inhibition in order to exclude cytotoxic compounds. […] Cytotoxicity was estimated using mouse fibroblast (L929) cells line via MTT assay, according to the international standards ISO 10993–5:2009(E). […] Therefore, the obtained results were expressed as CC30, which was defined as the highest concentration of the compound that causes 30% damage of cells and was considered according to ISO as non-toxic.
The L929 mouse fibroblast (ATTC® CCL-1™, Manassas, VA) was routinely maintained in RPMI 1640 media (R8758, Sigma-Aldrich, Suffolk, UK), supplemented with 10% foetal bovine serum (Foetal Bovine Serum, ATCC® 30–2020™), 100 I.U./mL penicillin and 100 µg/mL streptomycin (Penicillin-Streptomycin Solution ATCC® 30–2300™). Cells were trypsinised (Trypsin-EDTA Solution, 1X ATCC® 30–2101™) twice a week and seeded at a density of 1 × 10^6 per T25 cell culture flask and incubated at 37 °C and 10% CO2 to achieve a confluent monolayer.
Cell viability assay was performed according to international standards (ISO 10993–5:2009(E)), using tetrazolium salt (MTT, Sigma-Aldrich) and mouse fibroblasts L929 cells. Culture medium RPMI 1640, without phenol red (Biowest, Nuaille, France) supplemented with 10% FBS, 2 mM L-glutamine (Sigma-Aldrich), 100 I.U./mL penicillin, 100 µg/mL streptomycin were used. Briefly, 1 × 10^4/well of L929 cells were placed in 96-well plates and incubated for 24 h at 37 °C and 10% CO2. Afterwards, the old culture medium was replaced with 100 µL of the compound, drug or inhibitor, diluted in culture medium, and the cells treated for 24 h. Additionally, cells were treated with 0.03–4.0% concentration of DMSO as the solvent (data not shown). Then, 50 µL of 1 mg/mL of MTT solution in RPMI 1640 without phenol red was added to each well and incubated for 2 h at 37 °C and 10% CO2. Next, cell culture medium was aspirated carefully and 150 µL of DMSO was added to each well, and the plates were gently mixed. Then, 25 µL 0.1 M glycine buffer (pH 10.5) (Sigma-Aldrich) was added. The optical density at 570 nm using a multi-mode microplate reader SpectraMax® i3 (Syngen, Taipei City, Taiwan) was recorded. The results were expressed as a percentage of viability compared to untreated cells. All experiments were performed in triplicate. Cytotoxicity assay using human fibroblast Hs27 cells was also performed as described above (included in Supplementary Material).

T. gondii RH strain = experiment: Antiparasitic assay: T. gondii RH proliferation in Hs27 cells, [3H]uracil incorporation; format: cell-based, Toxoplasma gondii
Toxoplasma gondii = Toxoplasma gondii proliferation; cited from earlier work

## COc1cc(Cc2cnc(N)nc2N)cc(OC)c1OC [Trimethoprim (TRI), Trimethoprim, reference compound]
L929 cells
  CC30: 61.25 µM
T. gondii RH strain; Toxoplasma gondii, HS27
  IC50: 50.9 µM
T. gondii RH strain; ratio of CC30 (L929) to IC50Tg
  SR (selectivity ratio): 1.20
Toxoplasma gondii
  IC50: 50.9 µM
